The record followed here is the CombiSolv-Exp solvation set (Vermeire and Green 2021).

SMILES strings stand for the structures.

This data set can be described thus: solvent given as SMILES.

On to `CCC[N+](=O)[O-]`, for which the “solvation free energy, 298 K” value was -3.94 kcal/mol (in CC(C)CC(C)(C)C); -4.05 kcal/mol (in CCCCCC); -3.97 kcal/mol (in CCCCCCC); -3.95 kcal/mol (in CCCCCCCC); -3.79 kcal/mol (in CCCCCCCCCCCCCCCC); -4.44 kcal/mol (in CCCCCCCCO). Further, the “solvation free energy, 298 K” value reads like this: (in O) -3.38 kcal/mol; (in [2H]O[2H]) -3.44 kcal/mol.

Turning to `CC=CCC`, the “solvation free energy, 298 K” value (in CN(C)C=O) is -2.46 kcal/mol.

`C1CNC1`: for the setting “in O”, the “solvation free energy, 298 K” value is -5.56 kcal/mol.

For `CN(Cc1ccccc1)N=O`, where the note is “in O”, the “solvation free energy, 298 K” value was -7.03 kcal/mol.

As to `Clc1ccc(-c2cc(Cl)c(Cl)cc2Cl)cc1Cl`, the “solvation free energy, 298 K” value (in O) is -3.36 kcal/mol.

In the case of `O=Cc1cccnc1`, the “solvation free energy, 298 K” value (in O) is -7.1 kcal/mol.

Regarding `CCCI`, the “solvation free energy, 298 K” value is -4.16 kcal/mol (in C=CCCCCCCCCCCCCCC), -4.97 kcal/mol (in ClC(Cl)(Cl)Cl) and -0.56 kcal/mol (in O).

As for `CCCCCN(C)N=O`, the “solvation free energy, 298 K” value (in O) was -5.05 kcal/mol.

In the case of `O=Nc1ccc2ccccc2c1O`, for the setting “in O”, the “solvation free energy, 298 K” value is -8.79 kcal/mol.

Turning to `O=C1c2ccccc2C(=O)c2c(Cl)cccc21`, the “solvation free energy, 298 K” value is, setting by setting: (in C1CCOC1) -15 kcal/mol; (in CC(=O)N(C)C) -14.9 kcal/mol; (in CC(C)(C)O) -12.6 kcal/mol; (in CC(C)CC(C)(C)C) -12 kcal/mol; (in CC(C)CC(C)O) -12.7 kcal/mol; (in CC(C)CCO) -12.7 kcal/mol. Further, the “solvation free energy, 298 K” value (in CC(C)CO) was -12.6 kcal/mol; the “solvation free energy, 298 K” value (in CC(C)O) was -12.6 kcal/mol; the “solvation free energy, 298 K” value (in CCC(C)O) is -12.7 kcal/mol; the “solvation free energy, 298 K” value (in CCCC(C)CO) is -12.8 kcal/mol; the “solvation free energy, 298 K” value (in CCCC(C)O) was -12.8 kcal/mol; the “solvation free energy, 298 K” value (in CCCCCC) is -12.2 kcal/mol. Also, the “solvation free energy, 298 K” value is -12.3 kcal/mol (in CCCCCCC); -12.3 kcal/mol (in CCCCCCCC); -12.4 kcal/mol (in CCCCCCCCCC); -13.1 kcal/mol (in CCCCCCCCCCO); -13.1 kcal/mol (in CCCCCCCCO); -13.1 kcal/mol (in CCCCCCCO). Besides, the “solvation free energy, 298 K” value runs as follows: (in CCCCCCO) -13.1 kcal/mol; (in CCCCCO) -12.9 kcal/mol; (in CCCCCOC(C)=O) -13.9 kcal/mol; (in CCCCO) -12.8 kcal/mol; (in CCCCOC(C)=O) -14 kcal/mol; (in CCCCOCCCC) -13.1 kcal/mol. The “solvation free energy, 298 K” value was -12.8 kcal/mol (in CCCO); -14.1 kcal/mol (in CCCOC(C)=O); -14.2 kcal/mol (in CCOC(C)=O); -13.4 kcal/mol (in CCOCC); -12.7 kcal/mol (in CO); -13.4 kcal/mol (in COC(C)(C)C). Besides, the “solvation free energy, 298 K” value (in COC(C)=O) is -14.3 kcal/mol; the “solvation free energy, 298 K” value (in Fc1ccccc1) is -14.6 kcal/mol; the “solvation free energy, 298 K” value (in O) is -8.23 kcal/mol.

Take `[N-]=[N+]=O`: the “solvation free energy, 298 K” value reads like this: (in CC(C)=O) -1.05 kcal/mol; (in CC(C)CC(C)(C)C) -0.69 kcal/mol; (in CC(C)O) -0.48 kcal/mol; (in CCC(C)=O) -0.94 kcal/mol; (in CCCCCC) -0.74 kcal/mol; (in CCCCCCC) -0.65 kcal/mol. The “solvation free energy, 298 K” value is -0.6 kcal/mol (in CCCCCCCC); -0.49 kcal/mol (in CCCCCCCCCC); -0.55 kcal/mol (in CCCCCCCCCCO); -0.45 kcal/mol (in CCCCCCCCO); -0.49 kcal/mol (in CCCCCCO); -0.5 kcal/mol (in CCCCCO). The “solvation free energy, 298 K” value was -0.55 kcal/mol (in CCCCO); -0.98 kcal/mol (in CCCCOC(C)=O); -0.59 kcal/mol (in CCCO); -0.61 kcal/mol (in CCO); -0.69 kcal/mol (in CO); -1.09 kcal/mol (in COC(C)=O). Further, the “solvation free energy, 298 K” value by setting is: (in ClC(Cl)(Cl)Cl) -0.86 kcal/mol; (in ClC(Cl)Cl) -0.97 kcal/mol; (in Clc1ccccc1) -0.68 kcal/mol; (in O) 0.31 kcal/mol.

In the case of `CC(C)OC(C)(C)C`, the “solvation free energy, 298 K” value was -3.75 kcal/mol (in CC(=O)N(C)C); -3.87 kcal/mol (in CCCCN(C=O)CCCC); -3.66 kcal/mol (in CN1CCCCC1=O); -3.62 kcal/mol (in CNC(C)=O); -1.01 kcal/mol (in O).

As for `CCCCCCCCCC(C)=O`, under “in O”, the “solvation free energy, 298 K” value was -2.15 kcal/mol.

As to `C=C(C)C1CCC(C)C2=C(C1)C(C)CC2` (stereo not given), the “solvation free energy, 298 K” value (in O) was -0.01 kcal/mol.

As for `Nc1cccc([N+](=O)[O-])c1`, the “solvation free energy, 298 K” value is -8.01 kcal/mol (in CC(C)CC(C)(C)C) and -8.84 kcal/mol (in O).

Take `CCCCCCCCCOC(=O)c1ccccc1C(=O)OCCCC`: under “in O”, the “solvation free energy, 298 K” value is -6.67 kcal/mol.

`CN(C)C(=O)Nc1ccc(Cl)cc1`: the “solvation free energy, 298 K” value runs as follows: (in C1CCOC1) -13.7 kcal/mol; (in CC(C)CC(C)(C)C) -9.58 kcal/mol; (in CC(C)CCO) -13.1 kcal/mol; (in CC(C)CO) -13.1 kcal/mol; (in CC(C)O) -13.1 kcal/mol; (in CCC(C)O) -13.1 kcal/mol. Besides, the “solvation free energy, 298 K” value (in CCCC(C)O) was -13 kcal/mol; the “solvation free energy, 298 K” value (in CCCCC(CC)CO) is -12.8 kcal/mol; the “solvation free energy, 298 K” value (in CCCCCC) is -9.81 kcal/mol; the “solvation free energy, 298 K” value (in CCCCCCC) is -9.75 kcal/mol; the “solvation free energy, 298 K” value (in CCCCCCCC) is -9.79 kcal/mol; the “solvation free energy, 298 K” value (in CCCCCCCCCC) is -9.8 kcal/mol. Besides, the “solvation free energy, 298 K” value is -12.8 kcal/mol (in CCCCCCCCCCO); -13 kcal/mol (in CCCCCCCO); -13.2 kcal/mol (in CCCCCCO); -13.2 kcal/mol (in CCCCCO); -13.3 kcal/mol (in CCCCO); -12.8 kcal/mol (in CCCCOC(C)=O). The “solvation free energy, 298 K” value reads like this: (in CCCCOCCCC) -11.6 kcal/mol; (in CCCO) -13.3 kcal/mol; (in CCO) -13.4 kcal/mol; (in CCOC(C)=O) -13.1 kcal/mol; (in CO) -13.7 kcal/mol; (in COC(C)=O) -13.1 kcal/mol. Besides, the “solvation free energy, 298 K” value was -11.1 kcal/mol (in ClC(Cl)(Cl)Cl); -13.3 kcal/mol (in ClC(Cl)Cl); -13 kcal/mol (in ClCCCl); -13.3 kcal/mol (in ClCCl); -10.4 kcal/mol (in O).

As to `C=CCCCCCCCC`, the “solvation free energy, 298 K” value runs as follows: (in CN(C)C=O) -5.12 kcal/mol; (in O) 2.24 kcal/mol; (in OCCOCCO) -3.32 kcal/mol; (in OCCOCCOCCO) -3.58 kcal/mol; (in OCCOCCOCCOCCO) -3.78 kcal/mol.

In the case of `CCCCCCCOC(=O)c1ccccc1C(=O)OCCCCC`, the “solvation free energy, 298 K” value (in O) is -6.78 kcal/mol.

`O=C(O)c1ccc(C(=O)O)cc1`: the “solvation free energy, 298 K” value is, setting by setting: (in CN1CCCC1=O) -16.2 kcal/mol; (in O) -11.4 kcal/mol.

`CC(C)N`: for the setting “in CCCCCC”, the “solvation free energy, 298 K” value was -2.78 kcal/mol.

For `O=c1cc(-c2ccc(O)c(O)c2)oc2cc(O)cc(O)c12`, the “solvation free energy, 298 K” value runs as follows: (in CC(C)O) -25.4 kcal/mol; (in CCCCO) -25.2 kcal/mol; (in CCCO) -25.5 kcal/mol; (in CCO) -25.5 kcal/mol.

For `O=C(OC1CCCCCC1)c1ccccc1C(=O)OC1CCCCCC1`, the “solvation free energy, 298 K” value (in O) is -8.87 kcal/mol.

Take `Cc1cccc(C)n1`: the “solvation free energy, 298 K” value is, setting by setting: (in CC(C)CC(C)(C)C) -5.29 kcal/mol; (in O) -4.59 kcal/mol.

As for `Cc1cc(C)nc(NS(=O)(=O)c2ccc(N)cc2)n1`, where the note is “in O”, the “solvation free energy, 298 K” value is -20 kcal/mol.

As for `O=C(O)c1cccc(Cl)c1`, the “solvation free energy, 298 K” value by setting is: (in C1CCOC1) -11.2 kcal/mol; (in C1COCCO1) -10.9 kcal/mol; (in CC(C)CCO) -10.5 kcal/mol; (in CC(C)CO) -10.5 kcal/mol; (in CC(C)O) -10.7 kcal/mol; (in CC(C)OC(C)C) -10.1 kcal/mol. For the same compound, the “solvation free energy, 298 K” value (in CCC(C)O) is -10.6 kcal/mol; the “solvation free energy, 298 K” value (in CCCCCCCCCCO) was -10.3 kcal/mol; the “solvation free energy, 298 K” value (in CCCCCCCCO) was -10.4 kcal/mol; the “solvation free energy, 298 K” value (in CCCCCCCO) is -10.5 kcal/mol; the “solvation free energy, 298 K” value (in CCCCCCO) is -10.6 kcal/mol; the “solvation free energy, 298 K” value (in CCCCCO) is -10.6 kcal/mol. The “solvation free energy, 298 K” value (in CCCCCOC(C)=O) was -10.1 kcal/mol; the “solvation free energy, 298 K” value (in CCCCO) was -10.6 kcal/mol; the “solvation free energy, 298 K” value (in CCCCOC(C)=O) is -10.2 kcal/mol; the “solvation free energy, 298 K” value (in CCCO) was -10.7 kcal/mol; the “solvation free energy, 298 K” value (in CCO) was -10.7 kcal/mol; the “solvation free energy, 298 K” value (in CCOC(C)=O) was -10.4 kcal/mol. For the same compound, the “solvation free energy, 298 K” value reads like this: (in CCOCC) -10.5 kcal/mol; (in O) -7.03 kcal/mol.

In the case of `CCC(O)CC`, the “solvation free energy, 298 K” value (in O) was -4.35 kcal/mol.

For `CCC(C)(O)CC`, under “in O”, the “solvation free energy, 298 K” value was -4.2 kcal/mol.

`CCCCCCCO`: the “solvation free energy, 298 K” value (in CC(C)CC(C)(C)C) was -5.82 kcal/mol; the “solvation free energy, 298 K” value (in CCCCCC) is -5.59 kcal/mol; the “solvation free energy, 298 K” value (in CCCCCCC) is -5.59 kcal/mol; the “solvation free energy, 298 K” value (in CCCCCCCCCCCCCCCC) was -5.43 kcal/mol; the “solvation free energy, 298 K” value (in CCCCCCO) is -8.08 kcal/mol; the “solvation free energy, 298 K” value (in CO) is -7.6 kcal/mol. The “solvation free energy, 298 K” value is, setting by setting: (in NC=O) -6.38 kcal/mol; (in O) -4.24 kcal/mol.

`Clc1ccc(-c2ccc(Cl)c(Cl)c2)cc1Cl`: the “solvation free energy, 298 K” value (in O) is -3.62 kcal/mol.

As for `FC(F)C(F)Oc1ccccc1` (stereo not given), the “solvation free energy, 298 K” value (in O) was -1.29 kcal/mol.

In the case of `O=[N+]([O-])c1cccc(O)c1`, the “solvation free energy, 298 K” value was -7.79 kcal/mol (in CCCCCC); -7.72 kcal/mol (in CCCCCCC); -7.83 kcal/mol (in CCCCCCCC); -7.74 kcal/mol (in CCCCCCCCCC); -9.63 kcal/mol (in O).

For `Clc1ccc(-c2cc(Cl)c(Cl)c(Cl)c2Cl)cc1`, under “in CCCCCCCCO”, the “solvation free energy, 298 K” value was -12.8 kcal/mol.

For `Fc1ccccc1`, the “solvation free energy, 298 K” value is, setting by setting: (in C1CCOC1) -4.94 kcal/mol; (in C1COCCO1) -4.69 kcal/mol; (in CC(O)CO) -3.53 kcal/mol; (in CCCCCC) -4.15 kcal/mol; (in CCCCCCC) -4.13 kcal/mol; (in CCCCCCCCCC) -3.48 kcal/mol. Moreover, the “solvation free energy, 298 K” value (in CCCCCCCCCCCCCCCC) was -3.81 kcal/mol; the “solvation free energy, 298 K” value (in CN(C)C=O) was -4.75 kcal/mol; the “solvation free energy, 298 K” value (in COCCO) was -4.4 kcal/mol; the “solvation free energy, 298 K” value (in N#Cc1ccccc1) is -4.53 kcal/mol; the “solvation free energy, 298 K” value (in NC=O) is -2.8 kcal/mol; the “solvation free energy, 298 K” value (in O) was -0.8 kcal/mol. Further, under “in OCCO”, the “solvation free energy, 298 K” value is -2.91 kcal/mol.
